The results in this text go back to ChEMBL document CHEMBL4680217, “Discovery of PROTAC BCL-X degraders as potent anticancer agents with low on-target platelet toxicity” (Eur J Med Chem, 2020).

In test [1] the target is von Hippel-Lindau disease tumor suppressor/Apoptosis regulator Bcl-2 (Homo sapiens) (UniProt P10415+P40337). Nature of the test: Protac activity at VHL/BCL2 in human MOLT-4 cells assessed as induction of BCL2 degradation at 100 nM measured after 16 hrs by immunoblotting analysis. The test is classed as cell-based.
Test [2] deals with von Hippel-Lindau disease tumor suppressor/Bcl-2-like protein 1 (Homo sapiens, UniProt Q07817+P40337). Nature of the test: Protac activity at VHL/BCL-XL in human MOLT-4 cells assessed as induction of BCL-XL degradation by measuring remaining BCL-XL level at 100 nM measured after 16 hrs by immunoblotting analysis relative to control. Type of test: cell-based.
Test [3] has as its system MOLT-4. Kind of test: Antiproliferative activity against human MOLT-4 cells assessed as reduction in cell viability measured after 48 hrs by MTS assay. The test is classed as functional, cell-based. Conditions: MOLT-4, 48 h.

SMILES strings stand for the structures. Calls of active or inactive are those of the source. The calls are words filed in the database; no cut-off is given here.

Chain of von Hippel-Lindau disease tumor suppressor/Apoptosis regulator Bcl-2 (Homo sapiens) (P10415 whole entry, looked up): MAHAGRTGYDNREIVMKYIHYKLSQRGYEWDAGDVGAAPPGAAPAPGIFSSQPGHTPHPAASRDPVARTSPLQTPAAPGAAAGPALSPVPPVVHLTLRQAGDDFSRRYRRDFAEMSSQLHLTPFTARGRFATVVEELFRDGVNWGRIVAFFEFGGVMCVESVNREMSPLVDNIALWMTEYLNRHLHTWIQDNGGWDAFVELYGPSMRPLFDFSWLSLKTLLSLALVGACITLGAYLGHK
Chain of von Hippel-Lindau disease tumor suppressor/Apoptosis regulator Bcl-2 (Homo sapiens) (P40337 whole entry, looked up): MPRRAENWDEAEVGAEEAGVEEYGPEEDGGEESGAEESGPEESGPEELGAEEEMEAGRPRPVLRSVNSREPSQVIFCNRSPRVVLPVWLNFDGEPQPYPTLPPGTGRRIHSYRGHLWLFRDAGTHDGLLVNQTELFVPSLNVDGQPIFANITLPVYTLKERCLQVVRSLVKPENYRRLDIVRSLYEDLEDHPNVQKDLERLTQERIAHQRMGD
Chain of von Hippel-Lindau disease tumor suppressor/Bcl-2-like protein 1 (P40337 whole entry, looked up): as above
Chain of von Hippel-Lindau disease tumor suppressor/Bcl-2-like protein 1 (Q07817 whole entry, looked up): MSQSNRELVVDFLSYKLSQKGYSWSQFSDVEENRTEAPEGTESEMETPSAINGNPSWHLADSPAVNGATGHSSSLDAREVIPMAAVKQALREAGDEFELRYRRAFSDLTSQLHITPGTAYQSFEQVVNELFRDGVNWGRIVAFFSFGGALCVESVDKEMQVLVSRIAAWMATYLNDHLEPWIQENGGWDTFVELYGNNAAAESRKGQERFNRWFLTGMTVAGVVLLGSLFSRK

On to `Cc1ncsc1-c1ccc([C@H](C)NC(=O)[C@@H]2C[C@@H](O)CN2C(=O)[C@@H](NC(=O)CCC(=O)N2CCN(CC[C@H](CSc3ccccc3)Nc3ccc(S(=O)(=O)NC(=O)c4ccc(N5CCN(CC6=C(c7ccc(Cl)cc7)CCC(C)(C)C6)CC5)cc4)cc3S(=O)(=O)C(F)(F)F)CC2)C(C)(C)C)cc1`, for which, in test [1], the result was inactive. Further, the Activity in test [2] was determined as 92%. Moreover, the half-inhibitory concentration (IC50) in test [3] is > 2000 nM.
As to `Cc1ncsc1-c1ccc([C@H](C)NC(=O)[C@@H]2C[C@@H](O)CN2C(=O)[C@@H](NC(=O)CCCCN2CCN(CC[C@H](CSc3ccccc3)Nc3ccc(S(=O)(=O)NC(=O)c4ccc(N5CCN(CC6=C(c7ccc(Cl)cc7)CCC(C)(C)C6)CC5)cc4)cc3S(=O)(=O)C(F)(F)F)CC2)C(C)(C)C)cc1`, the outcome in test [1] was inactive. In test [2], the Activity came out at 61%. For the same compound, the IC50 in test [3] came to 130 nM.
For `Cc1ncsc1-c1ccc([C@H](C)NC(=O)[C@@H]2C[C@@H](O)CN2C(=O)[C@@H](NC(=O)CC(=O)N2CCN(CC[C@H](CSc3ccccc3)Nc3ccc(S(=O)(=O)NC(=O)c4ccc(N5CCN(CC6=C(c7ccc(Cl)cc7)CCC(C)(C)C6)CC5)cc4)cc3S(=O)(=O)C(F)(F)F)CC2)C(C)(C)C)cc1`, in that order: “inactive”, 96% and > 2000 nM.
For `Cc1ncsc1-c1ccc([C@H](C)NC(=O)[C@@H]2C[C@@H](O)CN2C(=O)[C@@H](NC(=O)COCCOCCOCCOCCN(C)CC[C@H](CSc2ccccc2)Nc2ccc(S(=O)(=O)NC(=O)c3ccc(N4CCN(CC5=C(c6ccc(Cl)cc6)CCC(C)(C)C5)CC4)cc3)cc2S(=O)(=O)C(F)(F)F)C(C)(C)C)cc1`, in that order: “inactive”, 33% and 206 nM.
For `Cc1ncsc1-c1ccc([C@H](C)NC(=O)[C@@H]2C[C@@H](O)CN2C(=O)[C@@H](NC(=O)CCCCC(=O)N2CCN(CC[C@H](CSc3ccccc3)Nc3ccc(S(=O)(=O)NC(=O)c4ccc(N5CCN(CC6=C(c7ccc(Cl)cc7)CCC(C)(C)C6)CC5)cc4)cc3S(=O)(=O)C(F)(F)F)CC2)C(C)(C)C)cc1`, in that order: “inactive”, 52% and 467 nM.
For `Cc1ncsc1-c1ccc([C@H](C)NC(=O)[C@@H]2C[C@@H](O)CN2C(=O)[C@@H](NC(=O)CCOCCN2CCN(CC[C@H](CSc3ccccc3)Nc3ccc(S(=O)(=O)NC(=O)c4ccc(N5CCN(CC6=C(c7ccc(Cl)cc7)CCC(C)(C)C6)CC5)cc4)cc3S(=O)(=O)C(F)(F)F)CC2)C(C)(C)C)cc1`, the outcome in test [1] was inactive. Moreover, the Activity in test [2] amounted to 72%. The IC50 in test [3] is 151 nM.
As for `Cc1ncsc1-c1ccc([C@H](C)NC(=O)[C@@H]2C[C@@H](O)CN2C(=O)[C@@H](NC(=O)CCCCCN(C)CC[C@H](CSc2ccccc2)Nc2ccc(S(=O)(=O)NC(=O)c3ccc(N4CCN(CC5=C(c6ccc(Cl)cc6)CCC(C)(C)C5)CC4)cc3)cc2S(=O)(=O)C(F)(F)F)C(C)(C)C)cc1`, the outcome in test [1] was inactive. For the same compound, the Activity in test [2] was 60%. Also, the IC50 in test [3] turned out to be 460 nM.
For `Cc1ncsc1-c1ccc([C@H](C)NC(=O)[C@@H]2C[C@@H](O)CN2C(=O)[C@@H](NC(=O)CCCCCCN2CCN(CC[C@H](CSc3ccccc3)Nc3ccc(S(=O)(=O)NC(=O)c4ccc(N5CCN(CC6=C(c7ccc(Cl)cc7)CCC(C)(C)C6)CC5)cc4)cc3S(=O)(=O)C(F)(F)F)CC2)C(C)(C)C)cc1`, in that order: “inactive”, 62% and 94.5 nM.
For `Cc1ncsc1-c1ccc([C@H](C)NC(=O)[C@@H]2C[C@@H](O)CN2C(=O)[C@@H](NC(=O)COCCOCCOCCN(C)CC[C@H](CSc2ccccc2)Nc2ccc(S(=O)(=O)NC(=O)c3ccc(N4CCN(CC5=C(c6ccc(Cl)cc6)CCC(C)(C)C5)CC4)cc3)cc2S(=O)(=O)C(F)(F)F)C(C)(C)C)cc1`, in that order: “inactive”, 33% and 200 nM.
